The source of these data is US6713477B1, “Hydroxamic acid derivatives” (Sumitomo Pharmaceuticals Company, Limited, priority 2000, dated 2004).

For assay [1], the target named is T1, MMP-13 (Matrix Metalloproteinase-13, Collagenase-3) (Homo sapiens, UniProt P45452).
T1 construct: made in house; host or cells: E. coli BL21 (DE3), pET11a
Nature of the assay: Inhibition assay against MMP-13 (fluorescent MCA-labeled substrate). To be noted: Table 10; active MMP-13 at 5 nM, 37° C., 1.5 hours; read-out: IC50 MMP13. It counts as biochemical. From the text: To subclone C-terminal truncated form of procollagenase-3 (proMMP-13) cDNA (J.Biol.Chem., 269(24), 16766-16773 (1994)), two synthetic oligonucleotide primer (5′-[…]-3′ and 5′-[…]-3′: the former incorporates sequences for a unique NdeI site (underlined) including initial methionine, and the latter has sequences for a stop codon and BamHI site (underlined)) were used with human chondrocyte cDNA library (CLONTECH) in PCR. With these primers and Pfu DNA polymerase (STRATAGENE) in PCR, 767 bp fragment was generated, which encodes 84 amino acid prosequence and 164 amino acids of mature MMP-13. The fragment was digested with NdaI and BamHI, ligated into the NdeI and BamHI sites of pET11a (STRATAGENE), transformed in E.coli BL21 (DE3) and cultured. The crude cell extract was prepared as described in Biochemistry. The extract was dialyzed against 20 mM Tris-HCl(pH7.2)/5 mM CaCl2/0.02% NaN3 and applied to a SP-Sepharose HP column (1.6×10 cm, Amersham-Pharmacia Biotech), and elution was performed with 50 mL linear gradient of 0 to 0.3 M NaCl (partially purified proMMP-13 was eluted at 0.2 M approximately). The fraction was dialyzed against 20 mM Tris-HCl(pH7.9)/5 mM CaCl2,/200 mM (NH4)2SO4/0.02% NaN3 and applied to a Phenyl Sepharose HP column (1.6×5 cm, Amersham-Pharmacia Biotech), and elution was performed with 20 mL linear gradient of 0.2 to 0 M (NH4)2SO4 (pure proHMP-13 was eluted at 50 mM approximately). The fraction was concentrated by YM-5 ultrafiltration membrane and activated with 4-aminophenylmercuric acetate and active MMP-13 was separated from propeptide fragments by gel filtration chromatography as described in Biochemistry.
(§1) Enzymatic assays were performed in accordance with C. G. Knight's method (FEBS Lett., 296(3), 263-266 (1992)). The fluorescent MCA-labeled substrate, (7-methoxycumaline-4-yl)-Pro-Leu-Gly-Leu-L-[N-(2,4-dinitrophenyl)-L-2,3-diaminopropionyl]-Ala-Arg-NH2 (Peptide Institute. Inc.) was used for measuring the kinetics of inhibition for each tested compound.
(§2) The substrate was incubated at 37° C. for 1.5 hours (MMP-1; for 24 hours) with active MMP (at 20 nM, except MMP-13 at 5 nM) and a test compound in assay buffer containing 100 mM Tris-HCl (pH7.5), 10 mM CaCl2, 100 MM NaCl and 0.05% Brij-35.

The target in assay [2] is T2, MMP-3 (Matrix Metalloproteinase-3, Stromelysin-1) (Homo sapiens, UniProt P08254).
T2 construct: C-terminal truncated form of human prostromelysin cDNA; made in house; host or cells: E. coli
The assay is described as follows: Inhibition assay against MMP-3 (fluorescent MCA-labeled substrate). The settings on record: Table 10; active MMP at 20 nM, 37° C., 1.5 hours; read-out: IC50 MMP3. It counts as biochemical. As for the experimental part: C-terminal truncated form of human prostromelysin cDNA (proMMP-3, cDNA sequence in Nature, 348, 699-704 (1990)) was subcloned, expressed in E.coli and purified as described previously (Biochemistry 30, 6476-6483 (1991)). Activation of proMMP-3 was achieved by treatment with 1 mM 4-aminophenylmercuric acetate at 37° C. for 60 min.
as §1, §2

Molecules are shown by their SMILES.

The IC50 is the concentration that gives 50% inhibition.

T2 sequence (P08254 100-272 limits assumed): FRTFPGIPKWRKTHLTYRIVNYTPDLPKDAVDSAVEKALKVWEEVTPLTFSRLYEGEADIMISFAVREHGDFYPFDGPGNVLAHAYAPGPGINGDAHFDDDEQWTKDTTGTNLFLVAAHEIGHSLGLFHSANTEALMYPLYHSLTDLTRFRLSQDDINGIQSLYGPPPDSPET

Regarding `COc1cccc(C2SC(CC(=O)NO)C(=O)N2CC(Cl)CCCCl)c1[N+](=O)[O-]` (stereo not shown) [Example 10], the IC50 turned out to be 5300 nM in assay [1] and 31600 nM in assay [2].

Take `COc1ccc(C2SC(CC(=O)NO)C(=O)N2CCCc2ccccc2)cc1` (stereo not shown) [Example 13]: the IC50 in assay [1] is 13200 nM; in assay [2], more than 50000 nM.

With `COc1cccc(C2SC(CC(=O)NO)C(=O)N2CCc2ccc(O)cc2)c1OC` (stereo not shown) [Example 19], the IC50 in assay [1] is more than 50000 nM; in assay [2], 1000 nM.

For `CCCCC#Cc1ccc(C2SCC(=O)N2C(CC(C)C)C(=O)NO)cc1` (stereo not shown) [Example 42], the IC50 is 759 nM in assay [1] and more than 10000 nM in assay [2].

On to `CC(C)CC(C(=O)NO)N1C(=O)CSC1c1ccc(-c2ccc(Cl)cc2)o1` (stereo not shown) [Example 46], for which the IC50 in assay [1] was 134 nM; in assay [2], 894 nM.

For the compound `COc1ccc(C2SCC(=O)N2C(CCSC)C(=O)NO)cc1F` (stereo not shown) [Example 71], the 50% inhibitory concentration (IC50) in assay [1] worked out at 249 nM; in assay [2], 9070 nM.

As for `CC(C)CC(C(=O)NO)N1C(=O)CSC1c1ccc(-c2cc(C(F)(F)F)nn2C)s1` (stereo not shown) [Example 88], the IC50 in assay [1] came out at 62 nM; in assay [2], 3800 nM.

With `COc1ccc(C2SCC(=O)N2C(COC(C)(C)C)C(=O)NO)cc1` (stereo not shown) [Example 105], the results for the IC50 in assay [1] and in assay [2] were 231 nM and 6720 nM, respectively.

For `COc1ccc(C2SCC(=O)N2C(Cc2ccc(OC(C)(C)C)cc2)C(=O)NO)cc1` (stereo not shown) [Example 109], the IC50 in assay [1] amounted to 43 nM; in assay [2], 599 nM.

In the case of `O=C(NO)C(Cc1c[nH]c2ccccc12)N1C(=O)CSC1c1ccc(Cl)cc1` (stereo not shown) [Example 121], the IC50 in assay [1] is 128 nM; in assay [2], 2550 nM.

Turning to `CC(C)CC(C(=O)NO)N1C(=O)CSC1c1ccc(Cl)cc1` (stereo not shown) [Example 130], the concentration for half-maximal inhibition (IC50) came to 56 nM in assay [1] and 1140 nM in assay [2].

Regarding `CCCC(C(=O)NO)N1C(=O)CSC1c1ccc(Oc2ccccc2)cc1` (stereo not shown) [Example 143], the half-inhibitory concentration (IC50) in assay [1] was 64 nM; in assay [2], 1270 nM.

For the compound `CCC(C)C(C(=O)NO)N1C(=O)CSC1c1ccc(OC)c(F)c1` (stereo not shown) [Example 175], the half-inhibitory concentration (IC50) is 112 nM in assay [1] and 1140 nM in assay [2].

As to `CCC(C)C(C(=O)NO)N1C(=O)CSC1c1ccc(SC)cc1` (stereo not shown) [Example 176], the IC50 in assay [1] amounted to 100 nM; in assay [2], 1060 nM.

Take `CCCCC(C(=O)NO)N1C(=O)CSC1c1cc2ccccc2o1` (stereo not shown) [Example 195]: the IC50 in assay [1] came out at 119 nM; in assay [2] it was 1890 nM.

With `COc1ccc(C2SC(CC(=O)NCc3cccnc3)C(=O)N2C(Cc2ccccc2)C(=O)NO)cc1` (stereo not shown) [Example 211], the results for the IC50 in assay [1] and in assay [2] were 108 nM and 895 nM, respectively.

Regarding `CC(C)CC(C(=O)NO)N1C(=O)C(CC(=O)NCc2ccco2)SC1c1ccc(Cl)cc1` (stereo not shown) [Example 218], the IC50 in assay [1] worked out at 56 nM; in assay [2], 422 nM.

For the compound `COc1ccc(C2SC(CC(=O)NC3CCCCC3)C(=O)N2C(CC(C)C)C(=O)NO)cc1` (stereo not shown) [Example 239], the IC50 stood at 35 nM in assay [1] and 274 nM in assay [2].

Consider `Cc1cc(NC(=O)CC2SC(c3ccc(Cl)cc3)N(C(Cc3ccc(OC(C)(C)C)cc3)C(=O)NO)C2=O)no1` (stereo not shown) [Example 255], for which the IC50 in assay [1] was found to be 106 nM; in assay [2] it was 1200 nM.

Regarding `COC(C)(C)NC(=O)CC1SC(c2ccc(Cl)cc2)N(C(Cc2ccc(OC(C)(C)C)cc2)C(=O)NO)C1=O` (stereo not shown) [Example 257], the figures for the IC50 in assay [1] and in assay [2] were 23 nM and 267 nM, respectively.

`C=CCNC(=O)CC1SC(c2ccc(Cl)cc2)N(C(CC(C)C)C(=O)NO)C1=O` (stereo not shown) [Example 262]: the IC50 in assay [1] came to 66 nM; in assay [2], 850 nM.

`CCCNC(=O)CC1SC(c2ccc(Cl)cc2)N(C(Cc2ccc(OC(C)(C)C)cc2)C(=O)NO)C1=O` (stereo not shown) [Example 283]: the values for the IC50 in assay [1] and in assay [2] were 37 nM and 614 nM, respectively.

On to `CCCN(CCC)C(=O)CC1SC(c2ccc(Cl)cc2)N(C(CC(C)C)C(=O)NO)C1=O` (stereo not shown) [Example 306], for which the IC50 in assay [1] came out at 122 nM; in assay [2], 987 nM.

As to `COCCNC(=O)CC1SC(c2ccc(Cl)cc2)N(C(Cc2ccc(OC(C)(C)C)cc2)C(=O)NO)C1=O` (stereo not shown) [Example 316], the values for the IC50 in assay [1] and in assay [2] were 26 nM and 442 nM, respectively.

`CNC(=O)CC1SC(c2ccc(OC)cc2)N(C(Cc2ccc(OC(C)(C)C)cc2)C(=O)NO)C1=O` (stereo not shown) [Example 324]: the IC50 came to 63 nM in assay [1] and 733 nM in assay [2].

As to `COCCCNC(=O)CC1SC(c2ccc(OC)cc2)N(C(Cc2ccc(OC(C)(C)C)cc2)C(=O)NO)C1=O` (stereo not shown) [Example 329], the IC50 came out at 11 nM in assay [1] and 155 nM in assay [2].

In the case of `COc1ccc(C2SC(CC(=O)NCCCN3CCCCC3C)C(=O)N2C(Cc2ccc(OC(C)(C)C)cc2)C(=O)NO)cc1` (stereo not shown) [Example 330], the IC50 in assay [1] stood at 66 nM; in assay [2], 745 nM.

Consider `COc1ccc(C2SC(CC(=O)NCc3ccco3)C(=O)N2C(Cc2ccc(OC(C)(C)C)cc2)C(=O)NO)cc1` (stereo not shown) [Example 333], for which the IC50 in assay [1] turned out to be 70 nM; in assay [2], 794 nM.

Take `COc1ccc(C2SC(CC(=O)Nc3ccccn3)C(=O)N2C(Cc2ccc(OC(C)(C)C)cc2)C(=O)NO)cc1` (stereo not shown) [Example 361]: the IC50 in assay [1] came to 53 nM; in assay [2], 446 nM.

As for `COc1ccc(/C=C2\Sc3cc(Cl)ccc3N(CC(=O)NO)C2=O)cc1` [Example 370], the 50% inhibitory concentration (IC50) was 35 nM in assay [1] and 1200 nM in assay [2].

As to `COc1ccc(/C=C2\Sc3ccc(C(F)(F)F)cc3N(CC(=O)NO)C2=O)cc1` [Example 371], the half-inhibitory concentration (IC50) was determined as 36 nM in assay [1] and 880 nM in assay [2].

`O=C(CN1C(=O)C(=Cc2ccccn2)Sc2ccccc21)NO` [Example 378]: the IC50 is 16000 nM in assay [1] and more than 50000 nM in assay [2].

`O=C(CN1C(=O)/C(=C/c2ccccc2)Sc2ccccc21)NO` [Example 388]: the 50% inhibitory concentration (IC50) in assay [1] is 1600 nM; in assay [2], 23000 nM.

For `O=C(CN1C(=O)/C(=C/c2ccc(-c3ccc(Br)cc3)o2)Sc2ccccc21)NO` [Example 389], the IC50 in assay [1] was 29000 nM; in assay [2], more than 50000 nM.

Take `O=C(CN1C(=O)C(Cc2ccc(O)cc2)Sc2ccccc21)NO` (stereo not shown) [Example 406, 2H-2-(4-Hydroxybenzyl)-1,4-benzothiazin-3(4H)-one-4-yl-acetic Acid N-Hydroxyamide]: the values for the IC50 in assay [1] and in assay [2] were 257 nM and 3230 nM, respectively.

As to `Cc1ccc(CC2Sc3ccccc3N(CC(=O)NO)C2=O)cc1` (stereo not shown) [Example 407, 2H-2-(4-Methylbenzyl)-1,4-benzothiazin-3(4H)-one-4-yl-acetic acid N-hydroxyamide], the IC50 amounted to 24 nM in assay [1] and 433 nM in assay [2].

As to `O=C(CN1C(=O)C(Cc2ccc(Oc3ccccc3)cc2)Sc2ccccc21)NO` (stereo not shown) [Example 409], the IC50 in assay [1] turned out to be 12 nM; in assay [2], 279 nM.

Consider `O=C(CN1C(=O)C(Cc2ccc(-c3ccccc3)cc2)Sc2ccccc21)NO` (stereo not shown) [Example 419], for which the half-inhibitory concentration (IC50) was 63 nM in assay [1] and 514 nM in assay [2].

As to `CCN(CC)c1ccc(CC2Sc3ccccc3N(CC(=O)NO)C2=O)cc1` (stereo not shown) [Example 422], the IC50 was 4810 nM in assay [1] and more than 10000 nM in assay [2].

Regarding `O=C(CN1C(=O)C(Cc2cccnc2)Sc2ccccc21)NO` (stereo not shown) [Example 423], the 50% inhibitory concentration (IC50) in assay [1] came to 1220 nM; in assay [2], 5130 nM.

Take `O=C(CN1C(=O)C(Cc2ccc(Br)cc2)Sc2ccccc21)NO` (stereo not shown) [Example 426]: the IC50 in assay [1] is 38 nM; in assay [2] it was 375 nM.

For the compound `COc1ccc(CC2Sc3cccc(Cl)c3N(CC(=O)NO)C2=O)cc1` (stereo not shown) [Example 429], the values for the half-inhibitory concentration (IC50) in assay [1] and in assay [2] were 3600 nM and 5620 nM, respectively.

Regarding `COc1ccc(CC2Sc3cc(C)c(C)cc3N(CC(=O)NO)C2=O)cc1` (stereo not shown) [Example 431], the IC50 in assay [1] amounted to 13 nM; in assay [2], 238 nM.

In the case of `COc1ccc(CC2Sc3ccccc3N([C@H](C(=O)NO)C(C)C)C2=O)cc1` (stereo partly shown) [Example 436], the concentration for half-maximal inhibition (IC50) in assay [1] came out at 671 nM; in assay [2], 938 nM.
